Test results published in US6632809B2, “Gyrase inhibitors and uses thereof” (Vertex Pharmaceuticals Incorporated, priority 2000, dated 2003).

The molecules below were run against DNA gyrase (374 kDa Gyr A2B2 subunit from Staphylococcus aureus) (Staphylococcus aureus, UniProt P0A0K8) (assay: Gyrase ATPase Assay). Settings: 10 μM concentration; ATPase assay at 30° C., 0.9 mM ATP; average of duplicate values; read-out: Gyrase Inhibitory Activity (percent inhibition).
Type: biochemical
Protocol: The ATP hydrolysis activity of DNA gyrase was measure by coupling the production of ADP through pyruvate kinase/lactate dehydrogenase to the oxidation of NADH. This method has been described previously (Tamura and Gellert, 1990, J. Biol. Chem., 265, 21342).
ATPase assays are carried out at 30° C. in buffered solutions containing 100 mM TRIS pH 7.6, 1.5 mM MgCl2, 50 mM KCl. The coupling system contains (final concentrations) 2.5 mM phosphoenol pyruvate, 200 μM nicotinamide adenine dinucleotide (NADH), 1 mM DTT, […], and 10 ug/ml lactate dehydrogenase. 40 nanomolar enzyme (374 kDa Gyr A2B2 subunit from Staphylococcus aureus) and a DMSO solution of the inhibitor to a final concentration of 4% are added and the reaction mixture is allowed to incubate for 10 minutes at 30° C. The reaction is then started by the addition of ATP to a final concentration of 0.9 mM and the rate of NADH disappearance at 340 nanometers is measured over the course of 10 minutes. The percent inhibition values are determined from rate versus concentration profiles and are reported as the average of duplicate values.
The compound numbers correspond to the compound numbers in Table 1. Compounds having an activity designated as “A” provided a percent inhibition value below 50 percent; compounds having an activity designated as “B” provided a percent inhibition value between 50 and 75 percent; and compounds having an activity designated as “C” provided a percent inhibition value greater than 75 percent.

DNA gyrase (374 kDa Gyr A2B2 subunit from Staphylococcus aureus), sequence (P0A0K8 whole entry): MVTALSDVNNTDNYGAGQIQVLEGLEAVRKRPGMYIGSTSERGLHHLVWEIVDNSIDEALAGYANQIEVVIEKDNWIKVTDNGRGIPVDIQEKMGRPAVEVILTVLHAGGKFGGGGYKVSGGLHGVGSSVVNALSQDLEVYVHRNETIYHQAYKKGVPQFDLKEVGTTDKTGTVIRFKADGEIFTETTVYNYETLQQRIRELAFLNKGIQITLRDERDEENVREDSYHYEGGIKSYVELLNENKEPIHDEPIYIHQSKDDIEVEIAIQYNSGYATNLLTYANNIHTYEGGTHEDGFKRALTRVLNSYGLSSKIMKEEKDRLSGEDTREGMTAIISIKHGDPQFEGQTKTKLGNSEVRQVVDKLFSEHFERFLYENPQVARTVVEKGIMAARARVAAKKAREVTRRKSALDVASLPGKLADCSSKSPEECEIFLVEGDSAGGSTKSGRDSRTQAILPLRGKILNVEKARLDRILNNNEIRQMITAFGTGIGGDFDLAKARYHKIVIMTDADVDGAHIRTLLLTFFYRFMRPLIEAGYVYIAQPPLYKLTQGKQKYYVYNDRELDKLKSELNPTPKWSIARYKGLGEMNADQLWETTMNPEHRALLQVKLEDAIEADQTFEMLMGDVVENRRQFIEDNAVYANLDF
DNA gyrase (374 kDa Gyr A2B2 subunit from Staphylococcus aureus), sequence (P20831 whole entry, further chain): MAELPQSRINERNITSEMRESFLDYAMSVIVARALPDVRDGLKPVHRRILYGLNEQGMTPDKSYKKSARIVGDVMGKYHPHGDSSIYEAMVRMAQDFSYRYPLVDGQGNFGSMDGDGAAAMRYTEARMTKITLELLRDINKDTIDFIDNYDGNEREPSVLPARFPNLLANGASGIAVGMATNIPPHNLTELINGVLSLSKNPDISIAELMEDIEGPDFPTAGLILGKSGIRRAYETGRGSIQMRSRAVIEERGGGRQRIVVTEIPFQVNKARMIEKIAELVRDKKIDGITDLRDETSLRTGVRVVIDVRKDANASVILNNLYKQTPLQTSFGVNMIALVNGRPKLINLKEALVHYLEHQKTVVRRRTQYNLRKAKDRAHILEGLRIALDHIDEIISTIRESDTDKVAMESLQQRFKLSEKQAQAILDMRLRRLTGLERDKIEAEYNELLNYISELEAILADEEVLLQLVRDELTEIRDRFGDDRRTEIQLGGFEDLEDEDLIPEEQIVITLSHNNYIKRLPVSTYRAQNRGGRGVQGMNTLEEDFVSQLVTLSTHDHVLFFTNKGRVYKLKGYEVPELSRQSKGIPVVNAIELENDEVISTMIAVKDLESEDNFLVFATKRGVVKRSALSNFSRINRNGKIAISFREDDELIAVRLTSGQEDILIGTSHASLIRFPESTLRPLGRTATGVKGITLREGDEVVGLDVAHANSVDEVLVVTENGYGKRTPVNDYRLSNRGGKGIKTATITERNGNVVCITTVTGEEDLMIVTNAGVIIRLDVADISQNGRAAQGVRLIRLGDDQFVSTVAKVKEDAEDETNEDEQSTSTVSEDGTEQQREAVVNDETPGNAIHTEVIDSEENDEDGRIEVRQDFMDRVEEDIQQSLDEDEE

Structure (SMILES)	inhibition at 10 µM [%]
CCNC(=O)Nc1nc2cc(-c3cnc(NCC4CCCO4)nc3)ccc2[nH]1 (centres unmarked) [Ia-47]	> 75
CCNC(=O)Nc1nc2cc(-c3cnc(NCc4ccccn4)nc3)ccc2[nH]1 [Ia-48]	> 75
CCNC(=O)Nc1nc2cc(-c3cnc(NCc4ccc(OC)cc4)nc3)ccc2[nH]1 [Ia-49]	> 75
CCNC(=O)Nc1nc2cc(-c3ccccc3)cc(OC)c2[nH]1 [Ia-50]	50 to 75
CCNC(=O)Nc1nc2cc(-c3cnc(OC)nc3OC)ccc2[nH]1 [Ia-52]	> 75
CCNC(=O)Nc1nc2cc(-c3cnc(N4CCOCC4)nc3)ccc2[nH]1 [Ia-53]	> 75
CCNC(=O)Nc1nc2cc(-c3cnc(N)nc3)ccc2[nH]1 [Ia-54]	> 75
CCNC(=O)Nc1nc2cc(-c3cnc(NCCN4CCCC4)nc3)ccc2[nH]1 [Ia-55]	> 75
CCNC(=O)Nc1nc2cc(-c3cnc(NCc4cccc(F)c4)nc3)ccc2[nH]1 [Ia-56]	> 75
CCNC(=O)Nc1nc2cc(-c3cnc(NC4CCCC4)nc3)ccc2[nH]1 [Ia-57]	> 75
CCNC(=O)Nc1nc2cc(-c3cncc(C(=O)OCC)c3)ccc2[nH]1 [Ia-59]	> 75
CCNC(=O)Nc1nc2cc(-c3cncc(C(=O)O)c3)ccc2[nH]1 [Ia-60]	> 75
CCNC(=O)Nc1nc2cc(-c3cnc(NCc4ccc(F)c(Cl)c4)nc3)ccc2[nH]1 [Ia-61]	> 75
CCNC(=O)Nc1nc2cc(-c3cccnc3)c(F)cc2[nH]1 [Ia-62]	> 75
CCNC(=O)Nc1nc2cc(-c3cnc(NCCc4ccccn4)nc3)ccc2[nH]1 [Ia-63]	> 75
CCNC(=O)Nc1nc2cc(-c3cnc(N4CCN(C)CC4)nc3)ccc2[nH]1 [Ia-64]	> 75
CCNC(=O)Nc1nc2cc(-c3cnc(N4CCCC4)nc3)ccc2[nH]1 [Ia-65]	> 75
CCNC(=O)Nc1nc2cc(-c3cnc(NCC)nc3)ccc2[nH]1 [Ia-66]	> 75
CCOC(=O)Nc1nc2cc(-c3ccc4[nH]c(NC(=O)OCC)nc4c3)ccc2[nH]1 [Ia-67]	> 75
CCOC(=O)Nc1nc2cc(-c3cnc(N4CCN(C(=O)OC(C)(C)C)CC4)nc3)ccc2[nH]1 [Ia-69]	50 to 75
CCOC(=O)Nc1nc2cc(-c3cnc(N4CCNCC4)nc3)ccc2[nH]1 [Ia-70]	> 75
CCOC(=O)Nc1nc2cc(-c3ccc(=O)[nH]c3)ccc2[nH]1 [Ia-71]	< 50

Structure (SMILES)	inhibition at 10 µM [%]
CCOC(=O)Nc1nc2cc(-c3cnc(N)nc3)ccc2[nH]1 [Ia-72]	> 75
CCCCNc1nc2cc(-c3cccnc3)ccc2[nH]1 [Ia-73]	< 50
CCCNc1nc2cc(-c3cccnc3)ccc2[nH]1 [Ia-74]	< 50
COC(=O)CCNc1nc2cc(-c3cccnc3)ccc2[nH]1 [Ia-75]	< 50
COC(=O)Nc1nc2cc(-c3cnc(NCC(=O)OC(C)(C)C)nc3)ccc2[nH]1 [Ia-76]	> 75
CCOC(=O)Nc1ncc(-c2ccc3[nH]c(NC(=O)OCC)nc3c2)cn1 [Ia-77]	> 75
CN(C)CCn1c(N)nc2cc(-c3cccnc3)ccc21 [Ia-78]	< 50
CNc1nc2cc(-c3cccnc3)ccc2n1CCN(C)C [Ia-79]	< 50
CCOC(=O)Nc1nc2cc(-c3cnc(NCC(=O)O)nc3)ccc2[nH]1 [Ia-80]	> 75
CCOC(=O)Nc1nc2cc(-c3cccc(C(=O)OC)c3)ccc2[nH]1 [Ia-81]	50 to 75
CCCC(=O)Nc1nc2cc(-c3ccccc3)ccc2[nH]1 [Ia-82]	< 50
CCNC(=O)Nc1nc2cc(-c3ccccc3)ccc2[nH]1 [Ia-84, 1-Ethyl-3-(5-phenyl-1H-benzoimidazol-2-yl)-urea]	> 75
CN1CCCC1C(=O)Nc1nc2cc(-c3ccccc3)ccc2[nH]1 (centres unmarked) [Ia-85]	< 50
CCOC(=O)Nc1nc2cc(-c3cnc(NCCNC(=O)OC(C)(C)C)nc3)ccc2[nH]1 [Ia-86]	> 75
CCOC(=O)Nc1cncc(-c2ccc3[nH]c(NC(=O)OCC)nc3c2)c1 [Ia-87]	> 75
CCOC(=O)Nc1nc2cc(-c3cnc(NCCN)nc3)ccc2[nH]1 [Ia-88]	> 75
CCNC(=O)Nc1nc2cc(-c3ccccc3)cc(Br)c2[nH]1 [Ia-89]	> 75
CCOC(=O)Nc1nc2cc(-c3cnc(N4CCN(S(C)(=O)=O)CC4)nc3)ccc2[nH]1 [Ia-91]	< 50
CCOC(=O)Nc1nc2cc(-c3cnc(NC(COC(C)(C)C)C(=O)OC(C)(C)C)nc3)ccc2[nH]1 (centres unmarked) [Ia-93]	> 75
CCOC(=O)Nc1nc2cc(-c3cnc(NC(CO)C(=O)O)nc3)ccc2[nH]1 (centres unmarked) [Ia-94]	> 75
CCN/C(=N\C)Nc1nc2cc(-c3ccccc3)ccc2[nH]1 [Ia-97]	< 50
CCNC(=O)Nc1nc2cc(-c3cnc(NC(C)COC)nc3)ccc2[nH]1 (centres unmarked) [Ia-100]	> 75

Structure (SMILES)	inhibition at 10 µM [%]
CCNC(=N)Nc1nc2cc(-c3ccccc3)ccc2[nH]1 [Ia-101]	< 50
CCNC(=O)Nc1nc2cc(-c3cnc(NCCCOC)nc3)ccc2[nH]1 [Ia-102]	> 75
CCNC(=O)Nc1nc2cc(-c3cccnc3)cc(F)c2[nH]1 [Ia-103]	> 75
CCNC(=O)Nc1nc2cc(-c3cnc(NCCC4CCCN4C)nc3)ccc2[nH]1 (centres unmarked) [Ia-106]	> 75
CCNC(=O)Nc1nc2cc(-c3cccnc3)cc(OC)c2[nH]1 [Ia-108]	> 75
CCNC(=O)Nc1nc2cc(-c3cnc(N4CC(C)CC(C)C4)nc3)ccc2[nH]1 (centres unmarked) [Ia-109]	> 75
CCNC(=O)Nc1nc2cc(-c3cnc(N4CCN(C(C)=O)CC4)nc3)ccc2[nH]1 [Ia-113]	> 75
CCOC(=O)Nc1nc2cc(-c3cncc(N)c3)ccc2[nH]1 [Ia-115]	< 50
CCNC(=O)Nc1nc2cc(-c3cnc(N4CCN(S(C)(=O)=O)CC4)nc3)ccc2[nH]1 [Ia-124]	50 to 75
CCNC(=O)Nc1nc2cc(-c3cnc(N4CCC(O)CC4)nc3)ccc2[nH]1 [Ia-125]	> 75
CCNC(=O)Nc1nc2cc(-c3cnc(N)nc3)c(OC)cc2[nH]1 [Ia-126]	> 75
CCCN(CC1CC1)c1ncc(-c2ccc3[nH]c(NC(=O)NCC)nc3c2)cn1 [Ia-127]	> 75
CCNC(=O)Nc1nc2cc(-c3cnc(NCc4ccc5c(c4)OCO5)nc3)ccc2[nH]1 [Ia-128]	> 75
CCNC(=O)Nc1nc2cc(-c3cnc(N4CCC(O)C4)nc3)ccc2[nH]1 (centres unmarked) [Ia-129]	> 75
CCNC(=O)Nc1nc2cc(-c3cnc(N4CCCC4COC)nc3)ccc2[nH]1 (centres unmarked) [Ia-130]	> 75
CCNC(=O)Nc1nc2cc(-c3cnc(N)nc3)c(F)cc2[nH]1 [Ia-131]	> 75
CCNC(=O)Nc1nc2cc(-c3ccc(OC)nc3)ccc2[nH]1 [Ia-132]	> 75
CCNC(=O)Nc1nc2cc(-c3cccnc3)cc(Cl)c2[nH]1 [Ia-134]	> 75
CCNC(=O)Nc1nc2cc(-c3ccc(CNC(=O)OC(C)(C)C)cc3)ccc2[nH]1 [Ia-135]	> 75
CCNC(=O)Nc1nc2cc(-c3ccc(F)nc3)ccc2[nH]1 [Ia-136]	> 75
CCNC(=O)Nc1nc2cc(-c3ccc(CN(C(=O)OC(C)(C)C)C(C)(C)C)nc3)ccc2[nH]1 [Ia-143]	> 75
